According to US8802711B2, “TRPV1 antagonists” (AbbVie Inc., priority 2011, dated 2014):
pIC50: −log10 of the molar value.

Key:
[1] = biological target: T1, human TRPV1 receptor (hTRPV1) (Homo sapiens (Human), UniProt Q8NER1); assay: Capsaicin activation assay (FLIPR intracellular Ca2+); assay type: cell-based; settings: Table 1; inhibition of capsaicin-induced intracellular Ca2+ increase, HEK293 cells expressing human TRPV1; read-out: hTRPV1 cap IC50
Outline: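 Antagonism measured as [Ca2+]i fluorescence on FLIPR Tetra: compounds given 3 min ahead of capsaicin, added as 200 nM (4×), to dye-loaded hTRPV1-HEK293 cells. Response taken as baseline-subtracted peak, normalized to the 50 nM capsaicin control; 12-point one-third-log titrations.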

[2] = biological target: T1, human TRPV1 receptor (hTRPV1); assay: Acid activation assay (pH 5.0, FLIPR intracellular Ca2+); assay type: cell-based; settings: Table 1, 37.5 μM antagonist, percentage of the maximal pH 5.0-induced response remaining; for remaining activity at 37.5 µM: read-out: hTRPV1 H+ (max % remain)
Outline: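 Antagonism of acid-evoked Ca2+ influx measured by FLIPR Calcium-4 fluorescence after a pH 5.0 DPBS/MES stimulus, with compounds preincubated 3 min over 12 half-log concentrations. Cells: stable hTRPV1-expressing 1321N1 line, dye-loaded 90–120 min in the dark at 25 °C.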

T1 sequence (Q8NER1 whole entry): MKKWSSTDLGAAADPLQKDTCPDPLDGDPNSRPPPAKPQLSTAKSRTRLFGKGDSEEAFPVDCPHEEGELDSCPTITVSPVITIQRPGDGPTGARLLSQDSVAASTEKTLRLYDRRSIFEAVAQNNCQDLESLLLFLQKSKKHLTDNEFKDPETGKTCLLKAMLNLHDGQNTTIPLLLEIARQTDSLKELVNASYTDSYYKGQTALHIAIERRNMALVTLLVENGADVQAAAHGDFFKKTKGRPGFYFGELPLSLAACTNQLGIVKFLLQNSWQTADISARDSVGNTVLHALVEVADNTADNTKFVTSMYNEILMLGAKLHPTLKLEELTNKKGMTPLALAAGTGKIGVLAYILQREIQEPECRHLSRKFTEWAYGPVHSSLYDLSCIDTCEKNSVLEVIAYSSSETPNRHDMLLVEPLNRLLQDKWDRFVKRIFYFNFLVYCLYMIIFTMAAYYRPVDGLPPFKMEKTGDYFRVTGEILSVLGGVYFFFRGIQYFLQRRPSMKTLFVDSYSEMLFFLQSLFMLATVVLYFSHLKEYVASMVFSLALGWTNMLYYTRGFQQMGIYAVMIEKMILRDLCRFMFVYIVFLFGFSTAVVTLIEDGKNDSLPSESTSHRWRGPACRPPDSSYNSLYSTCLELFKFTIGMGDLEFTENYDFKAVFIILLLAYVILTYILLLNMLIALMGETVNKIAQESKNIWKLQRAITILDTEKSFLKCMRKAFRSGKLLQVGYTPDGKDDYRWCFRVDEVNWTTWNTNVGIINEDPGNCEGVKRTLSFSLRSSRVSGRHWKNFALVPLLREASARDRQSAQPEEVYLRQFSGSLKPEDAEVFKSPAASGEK

| pIC50 [1] | remaining activity at 37.5 µM [2] | hTRPV1 H+ (max % remain) [2] | Compound |
| --- | --- | --- | --- |
| 7.80 | 46% |  | CN1C(=O)CCc2c(NC(=O)N[C@@H]3CC[C@@H](c4ccccc4F)C3)cccc21 [Example 99, 1-[(1R,3R)-3-(2-fluorophenyl)cyclopentyl]-3-(1-methyl-2-oxo-1,2,3,4-tetrahydroquinolin-5-yl)urea] |
| 7.60 | 43% |  | CN1C(=O)CCc2c(NC(=O)N[C@H]3CC[C@@H](c4ccccc4F)C3)cccc21 [Example 100, 1-[(1S,3R)-3-(2-fluorophenyl)cyclopentyl]-3-(1-methyl-2-oxo-1,2,3,4-tetrahydroquinolin-5-yl)urea] |
| 7.60 |  | 4% | Cn1ncc2c(NC(=O)N[C@@H]3CC[C@@H](c4cccc(F)c4)C3)cccc21 [Example 101, 1-[(1R,3R)-3-(3-fluorophenyl)cyclopentyl]-3-(1-methyl-420-1-21H-indazol-4-yl)urea] |
| 6.66 | 34% |  | Cn1ncc2c(NC(=O)N[C@H]3CC[C@@H](c4cccc(F)c4)C3)cccc21 [Example 102, 1-[(1S,3R)-3-(3-fluorophenyl)cyclopentyl]-3-(1-methyl-1H-indazol-4-yl)urea] |
| 7.85 | 19% |  | Cn1ncc2c(NC(=O)N[C@@H]3CC[C@@H](c4ccccc4F)C3)cccc21 [Example 103, 1-[(1R,3R)-3-(2-fluorophenyl)cyclopentyl]-3-(1-methyl-1H-indazol-4-yl)urea] |
| 7.01 | 42% |  | Cn1ncc2c(NC(=O)N[C@H]3CC[C@@H](c4ccccc4F)C3)cccc21 [Example 104, 1-[(1S,3R)-3-(2-fluorophenyl)cyclopentyl]-3-(1-methyl-1H-indazol-4-yl)urea] |
| 6.02 | 91% |  | CN1C(=O)CCc2ccc(NC(=O)N[C@H]3CC[C@@H](c4ccccc4)C3)cc21 [Example 105, 1-(1-methyl-2-oxo-1,2,3,4-tetrahydroquinolin-7-yl)-3-[(1S,3R)-3-phenylcyclopentyl]urea] |
| < 4.43 | 75% |  | CN1C(=O)CCc2ccc(NC(=O)N[C@H]3CC[C@H](c4ccccc4)C3)cc21 [Example 106, 1-(1-methyl-2-oxo-1,2,3,4-tetrahydroquinolin-7-yl)-3-[(1S,3S)-3-phenylcyclopentyl]urea] |
| < 4.43 | 77% |  | CN1C(=O)CCc2ccc(NC(=O)N[C@@H]3CC[C@@H](c4cccc(F)c4)C3)cc21 [Example 107, 1-[(1R,3R)-3-(3-fluorophenyl)cyclopentyl]-3-(1-methyl-2-oxo-1,2,3,4-tetrahydroquinolin-7-yl)urea] |
| 6.09 | 88% |  | CN1C(=O)CCc2ccc(NC(=O)N[C@H]3CC[C@@H](c4cccc(F)c4)C3)cc21 [Example 108, 1-[(1S,3R)-3-(3-fluorophenyl)cyclopentyl]-3-(1-methyl-2-oxo-1,2,3,4-tetrahydroquinolin-7-yl)urea] |
| < 4.43 | 76% |  | CN1C(=O)CCc2ccc(NC(=O)N[C@@H]3CC[C@@H](c4ccccc4F)C3)cc21 [Example 109, 1-[(1R,3R)-3-(2-fluorophenyl)cyclopentyl]-3-(1-methyl-2-oxo-1,2,3,4-tetrahydroquinolin-7-yl)urea] |
| < 4.43 | 72% |  | CN1C(=O)CCc2ccc(NC(=O)N[C@H]3CC[C@@H](c4ccccc4F)C3)cc21 [Example 110, 1-[(1S,3R)-3-(2-fluorophenyl)cyclopentyl]-3-(1-methyl-2-oxo-1,2,3,4-tetrahydroquinolin-7-yl)urea] |
| 6.44 | 32% |  | O=C(Nc1cccc2c1CCC2)N[C@@H]1CC[C@H](c2ccccc2)C1 [Example 111, 1-(2,3-dihydro-1H-inden-4-yl)-3-[(1R,3S)-3-phenylcyclopentyl]urea] |
| 5.86 | 35% |  | O=C(Nc1cccc2c1CCC2)N[C@H]1CC[C@H](c2ccccc2)C1 [Example 112, 1-(2,3-dihydro-1H-inden-4-yl)-3-[(1S,3S)-3-phenylcyclopentyl]urea] |
| 5.11 | 50% |  | O=C(Nc1ccc2c(c1)NC(=O)N(CCO)C2)N[C@H]1CC[C@@H](c2ccccc2)C1 [Example 113, 1-[3-(2-hydroxyethyl)-2-oxo-1,2,3,4-tetrahydroquinazolin-7-yl]-3-[(1S,3R)-3-phenylcyclopentyl]urea] |
| 6.08 | 62% |  | O=C(Nc1ccc2c(c1)NC(=O)N(CCO)C2)N[C@H]1CC[C@H](c2ccccc2)C1 [Example 114, 1-[3-(2-hydroxyethyl)-2-oxo-1,2,3,4-tetrahydroquinazolin-7-yl]-3-[(1S,3S)-3-phenylcyclopentyl]urea] |
| 6.19 | 47% |  | O=C(Nc1ccc2c(c1)NC(=O)N(CCO)C2)N[C@@H]1CC[C@@H](c2cccc(F)c2)C1 [Example 115, 1-[(1R,3R)-3-(3-fluorophenyl)cyclopentyl]-3-[3-(2-hydroxyethyl)-2-oxo-1,2,3,4-tetrahydroquinazolin-7-yl]urea] |
| 6.03 | 48% |  | O=C(Nc1ccc2c(c1)NC(=O)N(CCO)C2)N[C@H]1CC[C@@H](c2cccc(F)c2)C1 [Example 116, 1-[(1S,3R)-3-(3-fluorophenyl)cyclopentyl]-3-[3-(2-hydroxyethyl)-2-oxo-1,2,3,4-tetrahydroquinazolin-7-yl]urea] |
| 6.09 | 47% |  | O=C(Nc1ccc2c(c1)NC(=O)N(CCO)C2)N[C@H]1CC[C@@H](c2ccccc2F)C1 [Example 117, 1-[(1S,3R)-3-(2-fluorophenyl)cyclopentyl]-3-[3-(2-hydroxyethyl)-2-oxo-1,2,3,4-tetrahydroquinazolin-7-yl]urea] |
| < 4.43 | 50% |  | Cn1c(=O)ccc2c(NC(=O)N[C@H]3CC[C@H](c4ccccc4)C3)cccc21 [Example 118, 1-(1-methyl-2-oxo-1,2-dihydroquinolin-5-yl)-3-[(1S,3S)-3-phenylcyclopentyl]urea] |
| 5.19 | 50% |  | O=C(Nc1cccc2c1CCC2)N[C@H]1CC[C@@H](c2ccccc2)C1 [Example 124, 1-(2,3-dihydro-1H-inden-4-yl)-3-[(1S,3R)-3-phenylcyclopentyl]urea] |
| 6.49 | 40% |  | Cc1cc2c(NC(=O)N[C@@H]3CC[C@H](c4nc(C)cs4)C3)c(F)ccc2cn1 [Example 132, 1-(6-fluoro-3-methylisoquinolin-5-yl)-3-[(1R,3S)-3-(4-methyl-1,3-thiazol-2-yl)cyclopentyl]urea] |
| 6.29 | 16% |  | Cc1cc2c(NC(=O)N[C@@H]3CC[C@@H](c4nc(C)cs4)C3)c(F)ccc2cn1 [Example 133, 1-(6-fluoro-3-methylisoquinolin-5-yl)-3-[(1R,3R)-3-(4-methyl-1,3-thiazol-2-yl)cyclopentyl]urea] |
| 6.81 | 36% |  | Cc1cc2c(NC(=O)N[C@H]3CC[C@H](c4nc(C)cs4)C3)c(F)ccc2cn1 [Example 134, 1-(6-fluoro-3-methylisoquinolin-5-yl)-3-[(1S,3S)-3-(4-methyl-1,3-thiazol-2-yl)cyclopentyl]urea] |
